Results from US5096896A, “Sustained release compositions” (National Research Development Corporation, priority 1981, dated 1992).
Entries after “also recorded” stand apart in the source; their conditions may differ.

Key:
[1] = test system: P. berghei sulphonamide resistant ORA strain; assay: Experiment 4: protection against sulphonamide resistant ORA strain P. berghei; assay type: in vivo, Plasmodium berghei in mice; details: 1 x 1000 mg/kg, 0 (day 42 of exp)
Protocol: (§1) This experiment was designed to ascertain whether the sustained release composition of this invention could be utilised for the release of a mixture of active substances from a single depot. Preparations of 30% sulphadiazine + 10% pyrimethamine base in S2 (a new batch prepared as in Example 6) were blended and injected sc in 50 mg aliquots into mice in the suprascapular position. Additional groups of mice received S2 alone or no drug. Three groups of mice with S2 + drugs and 1 group with S2 alone were prepared for challenge on each of days 28, 42, 56 and 70. At each time interval one group each of the S2 + drug mice were challenged by the inoculation iv of 1×10^6 mouse erythrocytes infected with the drug sensitive N strain of P. berghei, the pyrimethamine resistant PYR strain and the sulphonamide resistant ORA strain, respectively. The group of mice with S2 alone was challenged with N strain parasites. Additional groups of control mice without oil were dosed with pyrimethamine (60 mg/kg) and orisulf (1000 mg/kg) immediately post-infection.

[2] = test system: P. berghei pyrimethamine resistant PYR strain; assay: Experiment 4: protection against pyrimethamine resistant PYR strain P. berghei; assay type: in vivo, Plasmodium berghei in mice; details: 1 x 60 mg/kg, 0 (day 42 of exp)
Protocol: as §1

mice = assay: Toxicity of the derivative oils, alone or with drug, in mice; assay type: in vivo
Text: (§2) An extensive toxicological investigation of the oils, either alone or in combination with antimalarials, has not been undertaken. The observations reported here are based on the behaviour and condition of mice immediately following injection of test substances, and on the development of any obvious gross pathology subsequent to drugging. All animals in experimental groups were examined at intervals for evidence of ulceration or other tissue reactions at the site of injection and mice were killed at intervals and examined for residual oil deposits and evidence of adverse tissue reactions to such deposits.

[3] = test system: Plasmodium berghei (N strain); assay: Experiment 2: P. berghei challenge of mice after sc injection of oil/pyrimethamine mixtures; assay type: in vivo, Plasmodium berghei in mice (Tuck TFW)
Protocol: This experiment was designed to extend the observation presented above in Experiment 1. All basic experimental procedures, including the preparation of 30% w/w dispersions of pyrimethamine base in S1, S2 and S3, were performed as described above. The primary objective was to obtain confirmation of the results obtained above whilst extending the period of observation. […] Twenty-seven groups of mice, with 5 mice in each, were again selected at random from pooled male white mice (Tuck TFW) of 20 gm body weight. Individual groups received 50 mg injections sc of S1 + pyrimethamine, S2 + pyrimethamine, S3 + pyrimethamine or S2 above. The distribution of groups is shown below:
At intervals of 14 days one group of mice from each of the different classes of inocula were infected by the intravenous injection of 1×10^6 mouse erythrocytes parasitised with P. berghei (N strain).
The examination of mice for P. berghei infection was performed as described above in Experiment 1.

[4] = test system: P. berghei drug sensitive N strain; assay: Experiment 4: protection against drug sensitive N strain P. berghei; assay type: in vivo, Plasmodium berghei in mice
Protocol: as §1

[5] = test system: Plasmodium berghei (N strain); assay: Experiment 1: P. berghei challenge of mice after sc injection of derivative oil with or without pyrimethamine; assay type: in vivo, Plasmodium berghei in mice (Tuck TFW male white)
Protocol: In the following experiments several derivative oils of this invention, prepared as aforesaid, were evaluated and compared for suitability as matrixes for active substances in the preparation of injectable depot antimalarial systems.
Depot preparations were made up by adding, by hand mixing, powdered active substance to the respective oil at 30% w/w.
Twenty-eight groups of mice, 5 mice per group, were selected at random from pooled Tuck TFW male white mice of approximately body weight 20 g. The mice were provided with food and water ad libitum. Care was taken that the diet contained adequate levels of p-aminobenzoic acid and that the mouse stock was free from infection with Eperythrozoon coccoides.
On day 0 the groups of mice were processed as follows:
(§3) Subcutaneous injections were administered in the mid dorsal, suprascapular position. Cages were examined daily and all deaths recorded. Mice were examined for evidence of local irritation at the site of injection.
On day 7, groups (cages) 1 to 7 inclusive were infected with Plasmodium berghei (N strain). 0.2 ml of an inoculum containing 1×10^6 infected mouse erythrocytes was injected into the tail vein of each recipient mouse. The presence or absence of patent malarial infection was determined by blood film examination three days post infection and at intervals thereafter. Standard procedures were employed in the examination of Giemsa stained blood films and in the determination of parasitaemia levels. The method of infection and the techniques for assessment of parasitaemia were as described previously. Some groups in which no parasitaemia developed after the initial inoculation with P. berghei were subsequently reinfected on the days illustrated in Table 5.

mice (site of injection) = assay: Tissue reaction and residual oil at the site of injection; assay type: in vivo
Protocol: as §3, §2

P. berghei = assay: Experiment 5: duration of protection by tetracycline in derivative oils; assay type: in vivo, Plasmodium berghei in mice; details: 30% tetracycline hydrochloride in oil, 100 mg sc
Protocol: This experiment (which is incomplete) was designed to ascertain the suitability of the derivatives of this invention in the administration of antibiotics. All basis experimental procedures were as described above except that the mice received 100 mg of the 30% mixtures of active substance (tetracycline as free base, or tetracycline as hydrochloride).

For `Nc1ccc(S(=O)(=O)Nc2ccnn2-c2ccccc2)cc1` [orisulf], which “Mice with patent parasitaemia post-challenge” value ([1]; day 3) is on record?
The value was 5/5.

And the “Mice with patent parasitaemia post-challenge” value ([1]; day 7)?
Its value is 5/5.

What about the “Mice with patent parasitaemia post-challenge” value ([1]; day 10) of the same compound?
Its value is 5/5.

`CCc1nc(N)nc(N)c1-c1ccc(Cl)cc1` [pyr, pyrimethamine] was tested. Which “Mice with patent parasitaemia post-challenge” value ([2]; day 3) did it give?
Its value is 5/5.

And the “Mice with patent parasitaemia post-challenge” value ([2]; day 7)?
The value was 4/4.

And the “Mice with patent parasitaemia post-challenge” value ([2]; day 10)?
Its value is 4/4.

What about the “Mice dead at 24 hours” value (mice; mouse, in vivo) of the same compound?
The value was “One of 5 mice”.

Which “Duration of antimalarial protection” value ([3]; 50 mg sc, 30% w/w pyrimethamine base) does the source give for `CCOC1CCCC(COC(=O)C2CCCC(OCC)O2)O1` (centres unmarked) [Example S2] here?
The value was “not less than 12 weeks”.

What about the “Parasitaemia on days post infection” value ([3]; challenge day 14, day 3/4, a: only one mouse surviving) of the same compound?
The value was 41%.

And the “Parasitaemia on days post infection” value ([3]; challenge day 14, day 7/8, a: only one mouse surviving)?
The value was 80%.

And the “Parasitaemia on days post infection” value ([3]; challenge day 28, day 3/4)?
Its value is 26%.

What about the “Parasitaemia on days post infection” value ([3]; challenge day 28, day 7/8) of the same compound?
The value was 50%.

What about the “Parasitaemia on days post infection” value ([3]; challenge day 42, day 3/4) of the same compound?
The value was 3.7%.

What about the “Parasitaemia on days post infection” value ([3]; challenge day 42, day 7/8) of the same compound?
The value was 32%.

What about the “Parasitaemia on days post infection” value ([3]; challenge day 56, day 3/4) of the same compound?
Its value is 26%.

And the “Parasitaemia on days post infection” value ([3]; challenge day 56, day 7/8)?
Its value is 70%.

What about the “Parasitaemia on days post infection” value ([3]; challenge day 56, day 10) of the same compound?
The value was 78%.

What about the “Parasitaemia on days post infection” value ([3]; challenge day 70, day 3/4) of the same compound?
The value was 23%.

And the “Parasitaemia on days post infection” value ([3]; challenge day 70, day 7/8)?
Its value is 74%.

What about the “Parasitaemia on days post infection” value ([3]; challenge day 70, day 10, a: only one mouse surviving) of the same compound?
Its value is 80%.

And the “Parasitaemia on days post infection” value ([3]; challenge day 84, day 3/4)?
The value was 29.6%.

And the “Parasitaemia on days post infection” value ([3]; challenge day 84, day 7/8, c: one mouse of 5 patent)?
Its value is 70%.

And the “Parasitaemia on days post infection” value ([3]; challenge day 84, day 10)?
The value was 80%.

And the “Mice with patent parasitaemia post-challenge” value ([4]; challenge day 28, day 3)?
Its value is 5/5.

And the “Mice with patent parasitaemia post-challenge” value ([4]; challenge day 28, day 7)?
The value was 5/5.

What about the “Mice with patent parasitaemia post-challenge” value ([4]; challenge day 42, day 3) of the same compound?
Its value is 5/5.

What about the “Mice with patent parasitaemia post-challenge” value ([4]; challenge day 42, day 7) of the same compound?
The value was 2/2.

And the “Mice with patent parasitaemia post-challenge” value ([4]; challenge day 56, day 3)?
The value was 5/5.

What about the “Mice with patent parasitaemia post-challenge” value ([4]; challenge day 56, day 7) of the same compound?
Its value is 5/5.

What about the “Parasitaemia (%) on days post infection” value ([5]; infected 7 days after drugging, day 3, 50 mg sc) of the same compound?
The value was 11.2%.

And the “Parasitaemia (%) on days post infection” value ([5]; infected 7 days after drugging, day 10, * estimated, 1 only survivor)?
Its value is about 80%.

What about the “Parasitaemia (%) on days post infection” value ([5]; infected 21 days after drugging, day 3, 50 mg sc) of the same compound?
Its value is 24%.

What about the “Parasitaemia (%) on days post infection” value ([5]; infected 21 days after drugging, day 10, * estimated, 1 only survivor) of the same compound?
The value was about 80%.

And the “Parasitaemia (%) on days post infection” value ([5]; infected 32 days after drugging, day 3)?
The value was 11.6%.

What about the “Parasitaemia (%) on days post infection” value ([5]; infected 32 days after drugging, day 7) of the same compound?
Its value is 56%.

And the “Malaria parasites in blood on day 3 post-infection” value ([5]; infected day 45, groups 24 and 25)?
The value was “no malaria parasite was observed”.

What about the “Parasitaemia (%) on days post infection” value ([5]; infected days 45, 48 after drugging, day 3 (first value)) of the same compound?
The value was 0%.

And the “Parasitaemia (%) on days post infection” value ([5]; infected days 45, 48 after drugging, day 3 (second value, after the slash))?
Its value is 8.8%.

And the “Parasitaemia (%) on days post infection” value ([5]; infected days 45, 48 after drugging, day 7)?
The value was 16.4%.

What about the “Parasitaemia (%) on days post infection” value ([5]; infected days 45, 48 after drugging, day 10) of the same compound?
The value was 80%.

What about the “Minimum period of protection of mice with pyrimethamine” value ([5]; oil with pyrimethamine, 50 mg sc) of the same compound?
The value was at least 9 weeks.

And the “Residual injected oil at injection site” value (mice (site of injection); 54 days after injection)?
The value was “Residues of the injected material were found in each of the 5 mice; also recorded: Somewhat greater quantities, albeit small amounts”.

And the “Persistence of oil in vivo” value (mice (site of injection); in words)?
The value was “stable for a surprisingly long time in vivo”.

What about the “Tissue reaction to oil at injection site” value (mice (site of injection); oil alone, autopsy at 54 days) of the same compound?
The value was “No evidence of adverse tissue reaction; also recorded: no marked fibrosis or vascularisation of the oil depot site”.

What about the “Duration of protection (days), tetracycline HCl” value (P. berghei) of the same compound?
The value was under 7 days.

Which Mortality after dosing (mice; mouse, in vivo) does the source give for `CCc1nc(N)nc(N)c1-c1ccc(Cl)cc1` [pyrimethamine isethionate] here?
Its Mortality after dosing is “all mice died within 1 hour of dosing”.

What about the Distress after dosing (mice; sc, equivalent to 750 mg/kg and 1500 mg/kg base) of the same compound?
Its Distress after dosing is “induced distress in animals within minutes”.
